As a reminder, the MBC is the lowest tested concentration that kills the bacteria rather than only halting them. In general, MIC refers to the least concentration at which growth counts as inhibited. Usually pKa stands for the negative logarithm of the acid dissociation constant. A higher pKa goes with a group that holds its proton tightly.

The values that follow come from article PMC11110727, “Exploiting thiol-functionalized benzosiloxaboroles for achieving diverse substitution patterns – synthesis, characterization and biological evaluation of promising antibacterial agents” (RSC Medicinal Chemistry, 2024).

In data set [1] the test system is Staphylococcus aureus, MSSA and MRSA strains. Put plainly: Antibacterial activity against S. aureus strains (text summaries). In kind it is cell-based. Conditions: for MBC / MIC: Staphylococcus aureus; for MBC: lowest MBC values; for Eagle effect (paradoxical growth) during MBC determination: S. aureus ATCC 6538P and five MRSA clinical strains. As to the method:
(§1) Direct antimicrobial activity was determined against the following standard strains: (1) Gram-positive cocci: methicillin-sensitive Staphylococcus aureus ATCC 6538P (MSSA), methicillin-resistant S. aureus subsp. aureus ATCC 43300 (MRSA), S. epidermidis ATCC 12228, Enterococcus faecium ATCC 6057, E. faecalis ATCC 29212, Bacillus subtilis ATCC 6633; (2) Gram-negative bacteria from Enterobacteriales order: Klebsiella pneumoniae ATCC 13883, Escherichia coli ATCC 25922, Enterobacter cloacae DSM 6234, Proteus mirabilis ATCC 12453, Serratia marcescens ATCC 13880; (3) Gram-negative non-fermentative rods: Acinetobacter baumannii ATCC 19606, Pseudomonas aeruginosa ATCC 27853, Stenotrophomonas maltophilia ATCC 12714, S. maltophilia ATCC 13637, Burkholderia cepacia ATCC 25416, Bordetella bronchiseptica ATCC 4617; (4) yeasts: Candida albicans ATCC 90028, C. krusei ATCC 6258, C. parapsilosis ATCC 22019, C. tropicalis (Castellani) Berkhout ATCC 750, C. tropicalis IBA 171, C. guilliermondii IBA 155, and Saccharomyces cerevisiae ATCC 9763. Moreover, 5 clinical strains of methicillin-resistant S. aureus were also included: NMI 664 K, NMI 1576 K, NMI 1712 K, NMI 1991 K, and NMI 2541 K. All strains were stored at −80 °C. Prior to testing, each bacterial strain was subcultured twice on tryptic soy agar TSA (bioMerieux) medium and yeast strains on Sabouraud dextrose agar (bioMerieux) for 24–48 h at 30 °C to ensure viability. The antimicrobial activity was evaluated as previously described[26] by the disc-diffusion method and the MIC determination assays according to the EUCAST (ref. [71] and [72]) and CLSI (ref. [53] and [73]) recommendations. Assessment of bactericidal (MBC) and fungicidal (MFC) activities was performed according to the CLSI recommendations.[54,74] The following reference agents were used: fluconazole (in the case of fungi), linezolid (for Gram-positive bacteria), and nitrofurantoin (for Gram-negative rods). The new benzosiloxaboroles were dissolved in DMSO (Sigma).

Data set [2] has as its system Gram-negative rods. Put plainly: Antibacterial activity against Gram-negative rods with or without PAβN (text summaries). In kind it is cell-based. Conditions: for efflux assay result (MIC with PAβN): Gram-negative rods; for reduction of MIC in the presence of PAβN: Enterobacterales. The method, then: as §1, with “The following reference agents were used: fluconazole (in the case of fungi), linezolid (for Gram-positive bacteria), and nitrofurantoin (for Gram-negative rods).” left out
Considering that the MDR efflux pumps often contribute to Gram-negative rod resistance, the MIC values of studied agents, with or without the pump inhibitor, PAβN (20 μg mL^−1) (Sigma), were determined.[75] The MIC was determined using Mueller–Hinton II broth medium (MHB) (Becton Dickinson) by the broth microdilution method, according to the CLSI guideliness.[53] To minimize the influence of PAβN on the destabilization of bacterial cell covers, the tests were conducted in the presence of 1 mM MgSO4 (Sigma).[76] At least a 4-fold reduction in the MIC value after the addition of PAβN was considered significant.[56,77]

For data set [3], the system named is S. aureus NMI 2541 K MRSA. Put plainly: Antibacterial activity against clinical MRSA: MIC/MBC. In kind it is cell-based. Conditions: Staphylococcus aureus, NMI 2541 K MRSA; for MIC: read-out: MIC. In a few lines: (§2)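 Strains were subcultured twice for 24–48 h at 30 °C, on TSA for bacteria and Sabouraud dextrose agar for yeasts. Disc-diffusion and MIC followed EUCAST/CLSI recommendations, and MBC/MFC followed CLSI. Compounds were dissolved in DMSO, with fluconazole or linezolid as references.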

The test system of data set [4] is S. aureus NMI 1712 K MRSA. Described as above. Particulars: Staphylococcus aureus, NMI 1712 K MRSA; for MIC: read-out: MIC. In kind it is cell-based. In a few lines:
as §2

Data set [5] deals with S. aureus NMI 664 K MRSA. The data set is described as above. In kind it is cell-based. Conditions: Staphylococcus aureus, NMI 664 K MRSA; for MIC: read-out: MIC. The procedure, abridged:
as §2

Data set [6] relates to S. aureus NMI 1576 K MRSA. The data set is described as above. In kind it is cell-based. Conditions: Staphylococcus aureus, NMI 1576 K MRSA; for MIC: read-out: MIC. The procedure, abridged:
as §2

The nature of data set [7]: physchem. The method, then: 0.1 M NaOH in H2O/MeOH (1 : 1 v/v).
The acidity constants of benzosiloxaboroles 1e, 2e, 6, 20 and 22–24 were determined by standard pH titration with 0.05 M aq. NaOH. The measurements were performed using a thermostated (25.0 °C) glass vessel equipped with a magnetic stirrer and a 10 mL burette. Prior to the measurement, the pH glass electrode was calibrated using borax and phosphate buffers. A solution of the analyzed compound (ca. 20–40 mg) in a mixture of MeOH/H2O (v/v 1 : 1, 30 mL) was titrated until the pH of the solution exceeded the value of 12.0.

Setting [8] is: read-out: MBC (first MBC where Eagle effect).
Where [9] appears, read: read-out: second MBC (Eagle effect).
Setting [10] is: both MSSA and MRSA strains, read-out: MIC values against Staphylococcus aureus.
Setting [11] is: standard and five clinical MRSA strains (Table 4), read-out: MIC (MRSA).

In brackets after ≈: the same amount, converted by molar mass. Read-outs that look alike come from different tables or passages of the source.

In data set [1], `C[Si]1(C)OB(O)c2cc(F)c(S)c(F)c21` [Compound 1e, 5,7-Difluoro-6-mercapto-1,1-dimethylbenzo[c][1,2,5]oxasilaborol-3(1H)-ol] showed an MBC of 25 to 50 µg/mL (≈ 102 to 203 µM).
In the case of `C[Si]1(C)OB(O)c2ccc(S)c(F)c21` [Compound 2e, 7-Fluoro-6-mercapto-1,1-dimethylbenzo[c][1,2,5]oxasilaborol-3(1H)-ol], the MBC in data set [1] is 25 to 50 µg/mL (≈ 110 to 219 µM).
Consider `COC(=O)CCSc1ccc2c(c1F)[Si](C)(C)OB2O` [Compound 4, Methyl 3-((7-fluoro-3-hydroxy-1,1-dimethyl-1,3-dihydrobenzo[c][1,2,5]oxasilaborol-6-yl)thio)propanoate], for which the “efflux assay result (MIC with PAβN)” value in data set [2] was “actively extruded from bacterial cells”. For the same compound, in data set [1], the “Eagle effect (paradoxical growth) during MBC determination” value is reported as “Eagle effect”.
Regarding `C[Si]1(C)OB(O)c2cc(F)c(SCCC#N)c(F)c21` [Compound 6, 3-((5,7-Difluoro-3-hydroxy-1,1-dimethyl-1,3-dihydrobenzo[c][1,2,5]oxasilaborol-6-yl)thio)propanenitrile], the MBC in data set [3] (setting [8]) is 25 µg/mL (≈ 83.6 µM); in data set [3] (setting [9]), over 400 µg/mL; in data set [4] (setting [8]) it was 12.5 µg/mL (≈ 41.8 µM); in data set [4] (setting [9]), over 400 µg/mL; in data set [5] (setting [8]), 25 µg/mL (≈ 83.6 µM); in data set [5] (setting [9]) it was over 400 µg/mL. The minimal bactericidal concentration (MBC) in data set [6] (setting [8]) is 25 µg/mL (≈ 83.6 µM); in data set [6] (setting [9]) it was over 400 µg/mL. The MIC in data set [3] is 12.5 µg/mL (≈ 41.8 µM); in data set [4], 12.5 µg/mL (≈ 41.8 µM); in data set [5], 12.5 µg/mL (≈ 41.8 µM); in data set [6], 12.5 µg/mL (≈ 41.8 µM); in data set [1] (setting [10]) it was 1.56 to 12.5 µg/mL (≈ 5.21 to 41.8 µM). For the same compound, the “Eagle effect (paradoxical growth) during MBC determination” value in data set [1] is recorded as “Eagle effect”. This compound had a pKa in data set [7] of 5.2.
Take `C[Si]1(C)OB(O)c2cc(F)c(SC3CC(=O)NC3=O)c(F)c21` (stereo not shown) [Compound 12, 3-((5,7-Difluoro-3-hydroxy-1,1-dimethyl-1,3-dihydrobenzo[c][1,2,5]oxasilaborol-6-yl)thio)pyrrolidine-2,5-dione]: the minimal bactericidal concentration (MBC) in data set [3] (setting [8]) was 200 µg/mL (≈ 583 µM); in data set [4] (setting [8]) it was 200 µg/mL (≈ 583 µM); in data set [5] (setting [8]) it was 200 µg/mL (≈ 583 µM); in data set [6] (setting [8]) it was 100 µg/mL (≈ 291 µM). Also, the MIC in data set [3] is 12.5 µg/mL (≈ 36.4 µM); in data set [4], 12.5 µg/mL (≈ 36.4 µM); in data set [5], 12.5 µg/mL (≈ 36.4 µM); in data set [6], 6.25 µg/mL (≈ 18.2 µM); in data set [1] (setting [10]), 1.56 to 12.5 µg/mL (≈ 4.55 to 36.4 µM). For the same compound, the “reduction of MIC in the presence of PAβN” value in data set [2] is on record as “at least 4 -fold”.
For `C[Si]1(C)OB(O)c2ccc(SC3CC(=O)NC3=O)c(F)c21` (stereo not shown) [Compound 13, 3-((7-Fluoro-3-hydroxy-1,1-dimethyl-1,3-dihydrobenzo[c][1,2,5]oxasilaborol-6-yl)thio)pyrrolidine-2,5-dione], the “reduction of MIC in the presence of PAβN” value in data set [2] is recorded as “at least 4 -fold”.
For `C[Si]1(C)OB(O)c2ccc(SCCS(=O)(=O)c3ccccc3)c(F)c21` [Compound 21, 7-Fluoro-1,1-dimethyl-6-((2-(phenylsulfonyl)ethyl)thio)benzo[c][1,2,5]oxasilaborol-3(1H)-ol], in data set [2], the “efflux assay result (MIC with PAβN)” value is on record as “actively extruded from bacterial cells”.
On to `CC(=O)CSc1ccc2c(c1F)[Si](C)(C)OB2O` [Compound 22, 1-((7-Fluoro-3-hydroxy-1,1-dimethyl-1,3-dihydrobenzo[c][1,2,5]oxasilaborol-6-yl)thio)propan-2-one], for which the MBC in data set [3] (setting [8]) came out at 200 µg/mL (≈ 704 µM); in data set [4] (setting [8]), 400 µg/mL (≈ 1410 µM); in data set [5] (setting [8]) it was 200 µg/mL (≈ 704 µM); in data set [6] (setting [8]), 200 µg/mL (≈ 704 µM). For the same compound, the MIC in data set [3] is 3.12 µg/mL (≈ 11 µM); in data set [4], 6.25 µg/mL (≈ 22 µM); in data set [5], 6.25 µg/mL (≈ 22 µM); in data set [6], 6.25 µg/mL (≈ 22 µM); in data set [1] (setting [10]) it was 1.56 to 12.5 µg/mL (≈ 5.49 to 44 µM); in data set [1] (setting [11]), 3.12 to 6.25 µg/mL (≈ 11 to 22 µM). Moreover, the pKa in data set [7] came out at 6.4.
`C[Si]1(C)OB(O)c2ccc(SCC(=O)c3ccccc3)c(F)c21` [Compound 23, 2-((7-Fluoro-3-hydroxy-1,1-dimethyl-1,3-dihydrobenzo[c][1,2,5]oxasilaborol-6-yl)thio)-1-phenylethan-1-one]: the MBC in data set [3] (setting [8]) was 6.25 µg/mL (≈ 18 µM); in data set [3] (setting [9]), 200 µg/mL (≈ 578 µM); in data set [4] (setting [8]), 25 µg/mL (≈ 72.2 µM); in data set [4] (setting [9]) it was 200 µg/mL (≈ 578 µM); in data set [5] (setting [8]), 3.12 µg/mL (≈ 9.01 µM); in data set [5] (setting [9]) it was 200 µg/mL (≈ 578 µM). The MBC turned out to be 6.25 µg/mL (≈ 18 µM) in data set [6] (setting [8]) and 100 µg/mL (≈ 289 µM) in data set [6] (setting [9]). Besides, the MIC in data set [3] is 1.56 µg/mL (≈ 4.51 µM); in data set [4] it was 3.12 µg/mL (≈ 9.01 µM); in data set [5], 3.12 µg/mL (≈ 9.01 µM); in data set [6], 3.12 µg/mL (≈ 9.01 µM); in data set [1] (setting [10]) it was 1.56 to 12.5 µg/mL (≈ 4.51 to 36.1 µM); in data set [1] (setting [11]) it was 1.56 to 3.12 µg/mL (≈ 4.51 to 9.01 µM). Moreover, in data set [1], the “Eagle effect (paradoxical growth) during MBC determination” value is listed as “Eagle effect”. For the same compound, in data set [7], the pKa turned out to be 6.3.
Regarding `C[Si]1(C)OB(O)c2ccc(SC(=O)c3ccc(C(F)(F)F)cc3)c(F)c21` [Compound 25, S-(7-Fluoro-3-hydroxy-1,1-dimethyl-1,3-dihydrobenzo[c][1,2,5]oxasilaborol-6-yl) 4-(trifluoromethyl)benzothioate], the MBC is 25 µg/mL (≈ 62.5 µM) in data set [3] (setting [8]); 25 µg/mL (≈ 62.5 µM) in data set [4] (setting [8]); 25 µg/mL (≈ 62.5 µM) in data set [5] (setting [8]); 50 µg/mL (≈ 125 µM) in data set [6] (setting [8]); 25 to 50 µg/mL (≈ 62.5 to 125 µM) in data set [1]. The MIC worked out at 12.5 µg/mL (≈ 31.2 µM) in data set [3], 12.5 µg/mL (≈ 31.2 µM) in data set [4], 12.5 µg/mL (≈ 31.2 µM) in data set [5] and 25 µg/mL (≈ 62.5 µM) in data set [6].
